From patent US20200231638A1, “STABILIZED ANTI-MICROBIAL PEPTIDES” (priority 2015, published 2020)
Bridge positions count the residues as written; N and C are the ends. Square brackets hold non-standard residues; d marks the D form. Peptide text beside a SMILES is read from it. Hyp = O=C(O)[C@@H]1C[C@@H](O)CN1; S5 = C=CCCC[C@](C)(N)C(=O)O; Nle = CCCC[C@H](N)C(=O)O; Aib = CC(C)(N)C(=O)O

Key:
[1] = test system: E. coli; assay type: cell-based, Escherichia coli
Method in brief: (§1)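 MIC read as the minimum peptide concentration showing no visible growth after 20-24 hours at 37° C. Cultures were grown overnight, then regrown several hours before testing. Medium was MHB refined by anion exchange to strip polyanions; final inoculum 5×10^5 CFU/ml.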

[2] = test system: B. cereus; assay type: cell-based, Bacillus cereus
Method in brief: as §1

[3] = test system: S. aureus; assay type: cell-based, Staphylococcus aureus
Method in brief: as §1

[4] = test system: P. aeruginosa; assay type: cell-based, Pseudomonas aeruginosa
Method in brief: as §1

[5] = test system: human red blood cells; assay type: cell-based; settings: red cells of human, 1 h, 25
Method in brief: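 Washed human RBCs as 1% (v/v) suspension in phosphate-buffered saline incubated 1 h at 37° C with serially diluted peptides. Hemoglobin release in supernatant measured spectrophotometrically (570 nm), % hemolysis relative to untreated and 1% Triton-X100 controls; MHC defined as concentration giving less than 1% release.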

| Structure (SMILES) | MIC E. coli [1] | MIC B. cereus [2] | MIC S. aureus [3] | MIC P. aeruginosa [4] | % Hemolysis at 25 μg/ml [5] |
| --- | --- | --- | --- | --- | --- |
| CCCC[C@H](NC(=O)[C@]1(C)CCCC=CCCC[C@](C)(NC(=O)[C@H](C)NC(=O)[C@H](CCCCN)NC(=O)CNC(=O)[C@H](Cc2ccccc2)NC(=O)[C@H](CCCCN)NC(=O)[C@H](CCCCN)NC(=O)[C@H](C)NC(=O)[C@H](CO)NC(=O)[C@H](Cc2c[nH]cn2)NC(=O)[C@H](CC(C)C)NC(=O)[C@H](Cc2ccccc2)NC(=O)[C@H](CCCCN)NC(=O)[C@H](CCC(=O)O)NC(=O)[C@@H](NC(=O)CN)[C@@H](C)CC)C(=O)N[C@@H](C(C)C)C(=O)NCC(=O)N[C@@H](CCC(=O)O)C(=O)N1)C(=O)N[C@@H](CC(N)=O)C(=O)N[C@@H](CO)C(N)=O [Mag(i + 4)15(G3E), GIEKFLHSAKKFGKAXVGEXBNS] (H-GIEKFLHSAKKFGKA[S5]VGE[S5][Nle]NS-NH2; staple 16-20) | 3.1 µg/mL | 12.5 µg/mL | 50 µg/mL | 12.5 µg/mL | 3.9% |
| CCCC[C@H](NC(=O)[C@]1(C)CCCC=CCCC[C@](C)(NC(=O)[C@H](C)NC(=O)[C@H](CCCCN)NC(=O)CNC(=O)[C@H](Cc2ccccc2)NC(=O)[C@H](CCCCN)NC(=O)[C@H](CCCCN)NC(=O)[C@H](C)NC(=O)[C@H](CO)NC(=O)[C@H](Cc2c[nH]cn2)NC(=O)[C@H](CC(C)C)NC(=O)[C@H](Cc2ccccc2)NC(=O)[C@H](CCCCN)NC(=O)[C@H](Cc2c[nH]cn2)NC(=O)[C@@H](NC(=O)CN)[C@@H](C)CC)C(=O)N[C@@H](C(C)C)C(=O)NCC(=O)N[C@@H](CCC(=O)O)C(=O)N1)C(=O)N[C@@H](CC(N)=O)C(=O)N[C@@H](CO)C(N)=O [Mag(i + 4)15(G3H), GIHKFLHSAKKFGKAXVGEXBNS] (H-GIHKFLHSAKKFGKA[S5]VGE[S5][Nle]NS-NH2; staple 16-20) | 1.6 µg/mL | 6.2 µg/mL | 25 µg/mL | 12.5 µg/mL | 5.1% |
| CCCC[C@H](NC(=O)[C@]1(C)CCCC=CCCC[C@](C)(NC(=O)[C@H](C)NC(=O)[C@H](CCCCN)NC(=O)CNC(=O)[C@H](Cc2ccccc2)NC(=O)[C@H](CCCCN)NC(=O)[C@H](CCCCN)NC(=O)[C@H](C)NC(=O)[C@H](CO)NC(=O)[C@H](Cc2c[nH]cn2)NC(=O)[C@H](CC(C)C)NC(=O)[C@H](Cc2ccccc2)NC(=O)[C@H](CCCCN)NC(=O)[C@H](CCCCN)NC(=O)[C@@H](NC(=O)CN)[C@@H](C)CC)C(=O)N[C@@H](C(C)C)C(=O)NCC(=O)N[C@@H](CCC(=O)O)C(=O)N1)C(=O)N[C@@H](CC(N)=O)C(=O)N[C@@H](CO)C(N)=O [Mag(i + 4)15(G3K), GIKKFLHSAKKFGKAXVGEXBNS] (H-GIKKFLHSAKKFGKA[S5]VGE[S5][Nle]NS-NH2; staple 16-20) | 1.6 µg/mL | 6.2 µg/mL | 12.5 µg/mL | 3.1 µg/mL | 3.8% |
| CCCC[C@H](NC(=O)[C@]1(C)CCCC=CCCC[C@](C)(NC(=O)[C@H](C)NC(=O)[C@H](CCCCN)NC(=O)C(C)(C)NC(=O)[C@H](Cc2ccccc2)NC(=O)[C@H](CCCCN)NC(=O)[C@H](CCCCN)NC(=O)[C@H](C)NC(=O)[C@H](CO)NC(=O)[C@H](Cc2c[nH]cn2)NC(=O)[C@H](CC(C)C)NC(=O)[C@H](Cc2ccccc2)NC(=O)[C@H](CCCCN)NC(=O)CNC(=O)[C@@H](NC(=O)CN)[C@@H](C)CC)C(=O)N[C@@H](C(C)C)C(=O)NCC(=O)N[C@@H](CCC(=O)O)C(=O)N1)C(=O)N[C@@H](CC(N)=O)C(=O)N[C@@H](CO)C(N)=O [Mag(i + 4)15(G13!), GIGKFLHSAKKF!KAXVGEXBNS] (H-GIGKFLHSAKKF[Aib]KA[S5]VGE[S5][Nle]NS-NH2; staple 16-20) | 1.6 µg/mL | 3.1 µg/mL | 3.1 µg/mL | 3.1 µg/mL | 71.5% |
| CCCC[C@H](NC(=O)[C@]1(C)CCCC=CCCC[C@](C)(NC(=O)[C@H](C)NC(=O)[C@H](CCCCN)NC(=O)[C@@H]2C[C@@H](O)CN2C(=O)[C@H](Cc2ccccc2)NC(=O)[C@H](CCCCN)NC(=O)[C@H](CCCCN)NC(=O)[C@H](C)NC(=O)[C@H](CO)NC(=O)[C@H](Cc2c[nH]cn2)NC(=O)[C@H](CC(C)C)NC(=O)[C@H](Cc2ccccc2)NC(=O)[C@H](CCCCN)NC(=O)CNC(=O)[C@@H](NC(=O)CN)[C@@H](C)CC)C(=O)N[C@@H](C(C)C)C(=O)NCC(=O)N[C@@H](CCC(=O)O)C(=O)N1)C(=O)N[C@@H](CC(N)=O)C(=O)N[C@@H](CO)C(N)=O [Mag(i + 4)15(G13&), GIGKFLHSAKKF&KAXVGEXBNS] (H-GIGKFLHSAKKF[Hyp]KA[S5]VGE[S5][Nle]NS-NH2; staple 16-20) | 12.5 µg/mL | >50 µg/mL | >50 µg/mL | 50 µg/mL | 1.3% |

The next lines start with results.

| MIC E. coli [1] | MIC B. cereus [2] | MIC S. aureus [3] | MIC P. aeruginosa [4] | Structure (SMILES) | % Hemolysis at 25 μg/ml [5] |
| --- | --- | --- | --- | --- | --- |
| 1.6 µg/mL | 3.1 µg/mL | 3.1 µg/mL | 6.2 µg/mL | CCCC[C@H](NC(=O)[C@]1(C)CCCC=CCCC[C@](C)(NC(=O)[C@H](C)NC(=O)[C@H](CCCCN)NC(=O)[C@H](C)NC(=O)[C@H](Cc2ccccc2)NC(=O)[C@H](CCCCN)NC(=O)[C@H](CCCCN)NC(=O)[C@H](C)NC(=O)[C@H](CO)NC(=O)[C@H](Cc2c[nH]cn2)NC(=O)[C@H](CC(C)C)NC(=O)[C@H](Cc2ccccc2)NC(=O)[C@H](CCCCN)NC(=O)CNC(=O)[C@@H](NC(=O)CN)[C@@H](C)CC)C(=O)N[C@@H](C(C)C)C(=O)NCC(=O)N[C@@H](CCC(=O)O)C(=O)N1)C(=O)N[C@@H](CC(N)=O)C(=O)N[C@@H](CO)C(N)=O [Mag(i + 4)15(G13A), GIGKFLHSAKKFAKAXVGEXBNS] (H-GIGKFLHSAKKFAKA[S5]VGE[S5][Nle]NS-NH2; staple 16-20) | 20.5% |
| 25 µg/mL | >50 µg/mL | >50 µg/mL | >50 µg/mL | CCCC[C@H](NC(=O)[C@]1(C)CCCC=CCCC[C@](C)(NC(=O)[C@H](C)NC(=O)[C@H](CCCCN)NC(=O)[C@H](CCC(=O)O)NC(=O)[C@H](Cc2ccccc2)NC(=O)[C@H](CCCCN)NC(=O)[C@H](CCCCN)NC(=O)[C@H](C)NC(=O)[C@H](CO)NC(=O)[C@H](Cc2c[nH]cn2)NC(=O)[C@H](CC(C)C)NC(=O)[C@H](Cc2ccccc2)NC(=O)[C@H](CCCCN)NC(=O)CNC(=O)[C@@H](NC(=O)CN)[C@@H](C)CC)C(=O)N[C@@H](C(C)C)C(=O)NCC(=O)N[C@@H](CCC(=O)O)C(=O)N1)C(=O)N[C@@H](CC(N)=O)C(=O)N[C@@H](CO)C(N)=O [Mag(i + 4)15(G13E), GIGKFLHSAKKFEKAXVGEXBNS] (H-GIGKFLHSAKKFEKA[S5]VGE[S5][Nle]NS-NH2; staple 16-20) | 2.2% |
| 3.1 µg/mL | >50 µg/mL | >50 µg/mL | 12.5 µg/mL | CCCC[C@H](NC(=O)[C@]1(C)CCCC=CCCC[C@](C)(NC(=O)[C@H](C)NC(=O)[C@H](CCCCN)NC(=O)[C@H](CCCCN)NC(=O)[C@H](Cc2ccccc2)NC(=O)[C@H](CCCCN)NC(=O)[C@H](CCCCN)NC(=O)[C@H](C)NC(=O)[C@H](CO)NC(=O)[C@H](Cc2c[nH]cn2)NC(=O)[C@H](CC(C)C)NC(=O)[C@H](Cc2ccccc2)NC(=O)[C@H](CCCCN)NC(=O)CNC(=O)[C@@H](NC(=O)CN)[C@@H](C)CC)C(=O)N[C@@H](C(C)C)C(=O)NCC(=O)N[C@@H](CCC(=O)O)C(=O)N1)C(=O)N[C@@H](CC(N)=O)C(=O)N[C@@H](CO)C(N)=O [Mag(i + 4)15(G13K), GIGKFLHSAKKFKKAXVGEXBNS] (H-GIGKFLHSAKKFKKA[S5]VGE[S5][Nle]NS-NH2; staple 16-20) | 1.8% |
| 3.1 µg/mL | 25 µg/mL | >50 µg/mL | 25 µg/mL | CCCC[C@H](NC(=O)[C@]1(C)CCCC=CCCC[C@](C)(NC(=O)[C@H](C)NC(=O)[C@H](CCCCN)NC(=O)[C@@H]2CCCN2C(=O)[C@H](Cc2ccccc2)NC(=O)[C@H](CCCCN)NC(=O)[C@H](CCCCN)NC(=O)[C@H](C)NC(=O)[C@H](CO)NC(=O)[C@H](Cc2c[nH]cn2)NC(=O)[C@H](CC(C)C)NC(=O)[C@H](Cc2ccccc2)NC(=O)[C@H](CCCCN)NC(=O)CNC(=O)[C@@H](NC(=O)CN)[C@@H](C)CC)C(=O)N[C@@H](C(C)C)C(=O)NCC(=O)N[C@@H](CCC(=O)O)C(=O)N1)C(=O)N[C@@H](CC(N)=O)C(=O)N[C@@H](CO)C(N)=O [Mag(i + 4)15(G13P), GIGKFLHSAKKFPKAXVGEXBNS] (H-GIGKFLHSAKKFPKA[S5]VGE[S5][Nle]NS-NH2; staple 16-20) | 2.0% |
| 1.6 µg/mL | 6.2 µg/mL | 6.2 µg/mL | 3.1 µg/mL | CCCC[C@H](NC(=O)[C@]1(C)CCCC=CCCC[C@](C)(NC(=O)[C@H](C)NC(=O)[C@H](CCCCN)NC(=O)[C@@H](C)NC(=O)[C@H](Cc2ccccc2)NC(=O)[C@H](CCCCN)NC(=O)[C@H](CCCCN)NC(=O)[C@H](C)NC(=O)[C@H](CO)NC(=O)[C@H](Cc2c[nH]cn2)NC(=O)[C@H](CC(C)C)NC(=O)[C@H](Cc2ccccc2)NC(=O)[C@H](CCCCN)NC(=O)CNC(=O)[C@@H](NC(=O)CN)[C@@H](C)CC)C(=O)N[C@@H](C(C)C)C(=O)NCC(=O)N[C@@H](CCC(=O)O)C(=O)N1)C(=O)N[C@@H](CC(N)=O)C(=O)N[C@@H](CO)C(N)=O [Mag(i + 4)15(G13a)] (H-GIGKFLHSAKKF[dA]KA[S5]VGE[S5][Nle]NS-NH2; staple 16-20) | 4.3% |
